Source: patent US20190134129A1, “METHOD FOR ALLEVIATING ULTRAVIOLET DAMAGE WITH ETHYL ACETATE-EXTRACTED PRODUCT OF SEDUM FORMOSANUM” (Sinotai Oncology Associate., Ltd., priority 2017, published 2019)

Tested on: HaCaT cells
Experiment: Apoptosis assay (FITC Annexin V/PI) of UV- or X-ray-irradiated HaCaT cells
Assay type: cell-based, human
Settings: UV 50 mJ/cm^2, 48 hours
Excerpt: A. Test Sample Pretreatment and Irradiation Treatment

| SMILES | Apoptosis percentage (%) (125 μg/mL pretreatment) | Apoptosis percentage (%) (250 μg/mL pretreatment) |
| --- | --- | --- |
| O=c1cc(-c2ccc(O)cc2)oc2c([C@@H]3O[C@H](CO)[C@@H](O)[C@H](O)[C@H]3O)c(O)cc(O)c12 [vitexin] | 20.00 ± 0.73 | 70.93 ± 1.52 |
| O=c1c(O[C@@H]2O[C@H](CO)[C@@H](O)[C@H](O)[C@H]2O)c(-c2ccc(O)cc2)oc2cc(O)cc(O)c12 [astragalin] | 22.37 ± 3.32 | 69.07 ± 5.07 |
